Laboratory results as given in ChEMBL document CHEMBL4007384, “Synthesis and optimization of furano[3,2-d]pyrimidines as selective spleen tyrosine kinase (Syk) inhibitors” (Bioorg Med Chem Lett, 2016).

Columns and labels:
Cytochrome P450 3A4 = Cytochrome P450 3A4 (Homo sapiens, UniProt P08684); assay: Time-dependent inhibition of CYP3A4 in human liver microsomes at 10 to 50 uM; assay type: ADME
[1] = molecular target: Serine/threonine-protein kinase Sgk1 (Homo sapiens, UniProt O00141); assay: Inhibition of SGK1 (unknown origin) after 60 mins by TR-FRET assay
[2] = molecular target: Epidermal growth factor receptor (Homo sapiens, UniProt P00533); assay: Inhibition of EGFR (unknown origin) after 60 mins by TR-FRET assay
[3] = molecular target: Proto-oncogene tyrosine-protein kinase Src (Homo sapiens, UniProt P12931); assay: Inhibition of SRC (unknown origin) after 60 mins by TR-FRET assay
[4] = Inhibition of CDK11 (unknown origin) after 60 mins by TR-FRET assay; parameters: species or system Homo sapiens
[5] = molecular target: Serine/threonine-protein kinase B-raf (Homo sapiens, UniProt P15056); assay: Inhibition of BRAF (unknown origin) after 60 mins by TR-FRET assay
[6] = molecular target: RAC-alpha serine/threonine-protein kinase (Homo sapiens, UniProt P31749); assay: Inhibition of AKT (unknown origin) after 60 mins by TR-FRET assay
Chain of RAC-alpha serine/threonine-protein kinase (P31749 whole entry): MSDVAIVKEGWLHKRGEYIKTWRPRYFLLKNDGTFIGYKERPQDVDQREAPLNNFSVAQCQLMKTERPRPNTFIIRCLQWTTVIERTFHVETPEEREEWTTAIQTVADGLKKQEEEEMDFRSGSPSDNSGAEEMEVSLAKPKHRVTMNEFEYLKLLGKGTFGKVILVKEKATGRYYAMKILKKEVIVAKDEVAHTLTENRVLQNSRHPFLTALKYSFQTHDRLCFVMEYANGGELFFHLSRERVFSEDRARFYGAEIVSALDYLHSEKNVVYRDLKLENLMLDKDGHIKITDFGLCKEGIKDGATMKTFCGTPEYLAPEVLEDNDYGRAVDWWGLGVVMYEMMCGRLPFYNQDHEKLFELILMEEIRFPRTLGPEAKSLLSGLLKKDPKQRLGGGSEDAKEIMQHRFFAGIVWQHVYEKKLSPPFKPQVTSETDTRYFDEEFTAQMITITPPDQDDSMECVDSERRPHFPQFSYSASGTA

Chain of Serine/threonine-protein kinase B-raf (P15056 whole entry): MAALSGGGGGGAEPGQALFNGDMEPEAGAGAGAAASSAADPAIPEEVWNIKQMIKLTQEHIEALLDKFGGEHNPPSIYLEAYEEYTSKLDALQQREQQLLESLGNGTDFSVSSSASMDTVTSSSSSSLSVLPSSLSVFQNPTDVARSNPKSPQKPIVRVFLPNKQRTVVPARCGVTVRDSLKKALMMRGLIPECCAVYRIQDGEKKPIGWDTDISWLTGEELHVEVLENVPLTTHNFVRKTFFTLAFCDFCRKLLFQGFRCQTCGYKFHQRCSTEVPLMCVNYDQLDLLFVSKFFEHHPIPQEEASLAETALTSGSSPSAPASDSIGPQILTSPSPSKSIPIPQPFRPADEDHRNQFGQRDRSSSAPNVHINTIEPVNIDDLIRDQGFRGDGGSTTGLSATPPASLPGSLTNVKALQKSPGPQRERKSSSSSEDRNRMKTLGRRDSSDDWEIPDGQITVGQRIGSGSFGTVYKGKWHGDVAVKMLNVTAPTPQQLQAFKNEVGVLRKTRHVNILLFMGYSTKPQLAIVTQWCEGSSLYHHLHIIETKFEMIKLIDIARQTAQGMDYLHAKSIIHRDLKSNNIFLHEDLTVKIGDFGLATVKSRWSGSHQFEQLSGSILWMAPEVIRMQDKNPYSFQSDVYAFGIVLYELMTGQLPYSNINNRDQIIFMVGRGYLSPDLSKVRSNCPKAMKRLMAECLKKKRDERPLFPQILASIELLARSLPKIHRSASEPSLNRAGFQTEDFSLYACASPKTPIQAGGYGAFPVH
Chain of Proto-oncogene tyrosine-protein kinase Src (P12931 2-536 limits assumed): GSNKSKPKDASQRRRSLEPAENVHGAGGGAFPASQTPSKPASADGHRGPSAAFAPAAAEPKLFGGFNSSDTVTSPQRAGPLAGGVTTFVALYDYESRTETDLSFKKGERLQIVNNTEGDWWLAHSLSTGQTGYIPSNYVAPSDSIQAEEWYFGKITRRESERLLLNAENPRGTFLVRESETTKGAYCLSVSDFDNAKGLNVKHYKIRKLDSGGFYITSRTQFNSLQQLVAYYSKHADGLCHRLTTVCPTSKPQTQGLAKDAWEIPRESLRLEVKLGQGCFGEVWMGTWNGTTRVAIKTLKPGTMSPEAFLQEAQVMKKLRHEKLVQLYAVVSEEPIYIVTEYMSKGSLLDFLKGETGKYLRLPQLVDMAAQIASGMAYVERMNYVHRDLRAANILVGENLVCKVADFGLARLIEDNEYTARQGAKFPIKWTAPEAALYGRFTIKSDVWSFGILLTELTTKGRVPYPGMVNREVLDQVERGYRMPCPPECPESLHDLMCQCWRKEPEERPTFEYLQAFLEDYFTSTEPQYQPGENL
Chain of Cytochrome P450 3A4 (P08684 whole entry): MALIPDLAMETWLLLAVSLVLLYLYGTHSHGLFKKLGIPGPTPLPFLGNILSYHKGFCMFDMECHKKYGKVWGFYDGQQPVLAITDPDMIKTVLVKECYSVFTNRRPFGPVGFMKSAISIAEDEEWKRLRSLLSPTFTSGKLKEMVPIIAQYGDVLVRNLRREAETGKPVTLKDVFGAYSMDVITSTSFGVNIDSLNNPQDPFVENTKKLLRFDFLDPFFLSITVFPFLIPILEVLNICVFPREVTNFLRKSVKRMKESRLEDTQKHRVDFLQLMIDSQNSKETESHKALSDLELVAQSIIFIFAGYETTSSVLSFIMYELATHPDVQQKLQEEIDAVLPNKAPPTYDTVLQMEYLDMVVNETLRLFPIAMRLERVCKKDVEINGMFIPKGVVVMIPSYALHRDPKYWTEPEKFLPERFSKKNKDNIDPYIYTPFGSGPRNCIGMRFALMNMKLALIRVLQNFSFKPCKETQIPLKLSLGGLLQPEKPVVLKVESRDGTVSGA
Chain of Serine/threonine-protein kinase Sgk1 (O00141 whole entry): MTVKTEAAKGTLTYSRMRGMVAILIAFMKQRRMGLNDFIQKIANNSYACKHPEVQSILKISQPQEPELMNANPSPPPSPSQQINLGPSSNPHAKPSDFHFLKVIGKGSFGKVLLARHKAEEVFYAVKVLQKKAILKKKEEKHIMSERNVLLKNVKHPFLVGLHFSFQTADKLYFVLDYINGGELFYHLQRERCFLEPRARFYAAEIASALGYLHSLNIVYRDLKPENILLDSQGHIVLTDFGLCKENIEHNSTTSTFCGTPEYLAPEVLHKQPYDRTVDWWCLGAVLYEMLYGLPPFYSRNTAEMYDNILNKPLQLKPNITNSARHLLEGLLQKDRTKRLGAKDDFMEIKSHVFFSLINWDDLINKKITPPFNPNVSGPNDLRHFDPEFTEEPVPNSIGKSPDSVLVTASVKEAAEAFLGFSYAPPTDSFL
Chain of Epidermal growth factor receptor (P00533 whole entry): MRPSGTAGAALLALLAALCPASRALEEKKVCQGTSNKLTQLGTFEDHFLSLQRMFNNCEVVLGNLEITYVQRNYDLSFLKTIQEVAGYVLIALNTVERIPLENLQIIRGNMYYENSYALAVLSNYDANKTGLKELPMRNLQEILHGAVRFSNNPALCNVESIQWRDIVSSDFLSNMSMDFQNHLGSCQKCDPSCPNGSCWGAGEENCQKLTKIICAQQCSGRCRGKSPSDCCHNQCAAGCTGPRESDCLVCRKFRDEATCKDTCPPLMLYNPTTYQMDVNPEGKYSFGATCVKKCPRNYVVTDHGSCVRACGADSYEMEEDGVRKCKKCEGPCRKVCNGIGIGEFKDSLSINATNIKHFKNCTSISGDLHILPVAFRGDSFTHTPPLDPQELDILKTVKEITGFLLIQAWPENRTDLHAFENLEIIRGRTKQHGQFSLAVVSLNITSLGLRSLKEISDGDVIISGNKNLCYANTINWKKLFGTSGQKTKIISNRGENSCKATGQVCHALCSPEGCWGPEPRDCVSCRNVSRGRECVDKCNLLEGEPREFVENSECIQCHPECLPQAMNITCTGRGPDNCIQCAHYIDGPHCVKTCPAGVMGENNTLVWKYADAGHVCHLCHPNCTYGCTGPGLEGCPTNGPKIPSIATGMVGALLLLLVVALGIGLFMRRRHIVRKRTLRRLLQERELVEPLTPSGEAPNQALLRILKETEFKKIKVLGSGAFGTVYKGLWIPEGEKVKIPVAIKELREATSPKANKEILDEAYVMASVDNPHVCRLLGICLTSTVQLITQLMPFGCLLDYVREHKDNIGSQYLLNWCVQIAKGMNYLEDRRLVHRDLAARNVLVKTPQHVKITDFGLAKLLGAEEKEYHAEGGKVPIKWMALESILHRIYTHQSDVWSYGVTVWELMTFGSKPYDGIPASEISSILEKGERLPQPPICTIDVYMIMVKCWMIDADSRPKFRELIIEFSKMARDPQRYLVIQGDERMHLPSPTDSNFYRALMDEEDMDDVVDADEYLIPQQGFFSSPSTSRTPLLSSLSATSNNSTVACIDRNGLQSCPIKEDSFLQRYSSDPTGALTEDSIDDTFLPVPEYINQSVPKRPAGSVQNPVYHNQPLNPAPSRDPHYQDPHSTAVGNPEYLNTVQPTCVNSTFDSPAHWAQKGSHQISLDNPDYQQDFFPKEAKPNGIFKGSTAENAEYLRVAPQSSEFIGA

| SMILES | TDI (Cytochrome P450 3A4) | IC50 [1] | IC50 [2] | IC50 [3] | IC50 [4] | IC50 [5] | IC50 [6] |
| --- | --- | --- | --- | --- | --- | --- | --- |
| Cc1n[nH]c2cc(Nc3nc(NC4CC4)c4occc4n3)ccc12 | Active |  |  |  |  |  |  |
| CC1(C)OCC(=O)Nc2cc(Nc3nc(NCC(F)(F)F)c4occc4n3)ccc21 |  | > 10 µM | > 10 µM | 0.156 µM | > 10 µM | > 10 µM | > 10 µM |
